Measurements as given in publication PMC5901755 (ACS chemical neuroscience, 2016).

Biological target: T1, TREK-1 (Homo sapiens, UniProt O95069)
T1 sequence (O95069 1-426): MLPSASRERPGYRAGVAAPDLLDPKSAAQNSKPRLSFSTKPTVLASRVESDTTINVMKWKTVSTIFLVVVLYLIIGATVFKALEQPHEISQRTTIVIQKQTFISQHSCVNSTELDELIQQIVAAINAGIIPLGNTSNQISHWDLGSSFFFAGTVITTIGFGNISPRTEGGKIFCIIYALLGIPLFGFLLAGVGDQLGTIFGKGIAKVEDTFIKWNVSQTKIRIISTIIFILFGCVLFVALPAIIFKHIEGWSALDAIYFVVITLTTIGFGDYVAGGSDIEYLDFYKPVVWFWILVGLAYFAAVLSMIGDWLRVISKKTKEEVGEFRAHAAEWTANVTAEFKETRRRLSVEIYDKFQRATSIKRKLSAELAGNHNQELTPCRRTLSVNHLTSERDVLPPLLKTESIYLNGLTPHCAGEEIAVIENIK
Assay: Tl+ flux fluorescence
Assay type: cell-based
Conditions: inhibitor; 1.8 µM, 10 min pretreatment; pH 7.3

Q: For `CCCCC[C@H](O)/C=C/[C@H]1CC[C@H](O)[C@@H]1C/C=C\CCCC(=O)O` [11-deoxy prostaglandin F2α], which “Tl+ flux fluorescence (Thallos), T-REx-HEK293” value is on record?
A: we observed that 11-deoxy prostaglandin F2α inhibited TREK-1 channels
